Source: US20090197880A1 (Genelabs Technologies, Inc., priority 2007, published 2009)

experiment: HCV replicon assay (luciferase) in ET (Huh-lucubineo-ET) cell line; assay type: cell-based; details: Hepatitis C virus; tested at 10 μM; inhibition of replication relative to no compound control; ET replicon cells, luciferase 48-72 hours; read-out: % inhition at 10 μM
From the text: A cell line, ET (Huh-lucubineo-ET) was used for screening of compounds, or pharmaceutically acceptable salts or solvates, described herein for inhibition of HCV RNA dependent RNA polymerase. The ET cell line was stably transfected with RNA transcripts harboring a I389luc-ubi-neo/NS3-3′/ET; replicon with firefly luciferase-ubiquitin-neomycin phosphotransferase fusion protein and EMCV-IRES driven NS3-5B polyprotein containing the cell culture adaptive mutations (E1202G; T1280I; K1846T) (Krieger at al, 2001 and unpublished). The ET cells were grown in DMEM, supplemented with 10% fetal calf serum, 2 mM Glutamine, Penicillin (100 IU/mL)/Streptomycin (100 μg/mL), 1× nonessential amino acids, and 250 μg/mL G418 (“Geneticin”). They were all available through Life Technologies (Bethesda, Md.). The cells were plated at 0.5−1.0×10^4 cells/well in the 96 well plates and incubated for 24 hrs before adding the test compounds. […] Luciferase activity was measured 48-72 hours later by adding a lysis buffer and the substrate (Catalog number Glo-lysis buffer E2661 and Bright-Glo luciferase system E2620 Promega, Madison, Wis.). Cells should not be too confluent during the assay. Percent inhibition of replication was plotted relative to no compound control. Under the same condition, cytotoxicity of the compounds was determined using cell proliferation reagent, WST-1 (Roche, Germany). The compounds showing antiviral activities, but no significant cytotoxicities were chosen to determine the EC50 and TC50, the effective concentration and toxic concentration at which 50% of the maximum inhibition is observed. For these determinations, 6 dilutions of each compound were used. Compounds were typically diluted 3 fold to span a concentration range of 250 fold. EC50 and similarly TC50 values were calculated by fitting % inhibition at each concentration to the following equation:
% inhibition=100%/[(EC50/[I])^b+1]
where b is Hill's coefficient.

Row | SMILES | inhibition at 10 µM
1 | CCCOc1ccc(-c2cc(Cn3cc4nc(-c5ccco5)nc-4cn3)on2)cc1 [Compound 144, 2-Furan-2-yl-5-[3-(4-propoxy-phenyl)-isoxazol-5-ylmethyl]-5H-imidazo[4,5-d]pyridazine] | 92.2%
2 | CCCOc1ccc(-c2cc(Cn3cc4nc(-c5ccc(F)cc5)nc-4cn3)on2)cc1 [Compound 145, 2-(4-Fluoro-phenyl)-5-[3-(4-propoxy-phenyl)-isoxazol-5-ylmethyl]-5H-imidazo[4,5-d]pyridazine] | 85.6%
3 | Fc1cccc(-c2nc3cnn(Cc4cc(-c5ccc(OCc6ccncc6)cc5)no4)cc-3n2)c1F [Compound 148, 2-(2,3-Difluoro-phenyl)-5-{3-[4-(pyridin-4-ylmethoxy)-phenyl]-isoxazol-5-ylmethyl}-H-imidazo[4,5-d]pyridazine] | 100%
4 | Cc1nc(C)c(-c2cc(Cn3cc4nc(-c5cccc(F)c5F)nc-4cn3)on2)s1 [Compound 149, 2-(2,3-Difluoro-phenyl)-5-[3-(2,4-dimethyl-thiazol-5-yl)-isoxazol-5-ylmethyl]-5H-imidazo[4,5-d]pyridazine] | 43.7%
5 | Fc1cccc(-c2nc3cnn(Cc4cc(-c5ccc(CN6CCCCC6)cc5)no4)cc-3n2)c1F [Compound 157, 2-(2,3-Difluoro-phenyl)-5-[3-(4-piperidin-1-ylmethyl-phenyl)-isoxazol-5-ylmethyl]-5H-imidazo[4,5-d]pyridazine] | 9.99%
6 | Fc1cccc(-c2nc3cnn(Cc4cc(-c5ccc(OCCN6CCCC6)cc5)no4)cc-3n2)c1F [Compound 158, 2-(2,3-Difluoro-phenyl)-5-{3-[4-(2-pyrrolidin-1-yl-ethoxy)-phenyl]-isoxazol-5-ylmethyl}-5H-imidazo[4,5-d]pyridazine] | 27.9%
7 | O=C(O)c1cccc(COc2ccc(-c3cc(Cn4cc5nc(-c6cccc(F)c6F)nc-5cn4)on3)cc2)c1 [Compound 159, 3-(4-{5-[2-(2,3-Difluoro-phenyl)-imidazo[4,5-d]pyridazin-5-ylmethyl]-isoxazol-3-yl}-phenoxymethyl)-benzoic Acid] | 49.4%
8 | Fc1ccc(-c2cc(Cn3cc4nc(-c5cccc(F)c5F)nc-4cn3)on2)c(OC(F)(F)F)c1 [Compound 160, 2-(2,3-Difluoro-phenyl)-5-[3-(4-fluoro-2-trifluoromethoxy-phenyl)-isoxazol-5-ylmethyl]-5H-imidazo[4,5-d]pyridazine] | 61.5%
9 | CN(C)CCOc1ccc(-c2cc(Cn3cc4nc(-c5cccc(F)c5F)nc-4cn3)on2)cc1 [Compound 161, [2-(4-{5-[2-(2,3-Difluoro-phenyl)-imidazo[4,5-d]pyridazin-5-ylmethyl]-isoxazol-3-yl}-phenoxy)-ethyl]-dimethyl-amine] | 54.6%
10 | O=C(O)c1ccc(COc2ccc(-c3cc(Cn4cc5nc(-c6cccc(F)c6F)nc-5cn4)on3)cc2)cc1 [Compound 162, 4-(4-{5-[2-(2,3-Difluoro-phenyl)-imidazo[4,5-d]pyridazin-5-ylmethyl]-isoxazol-3-yl}-phenoxymethyl)-benzoic Acid] | 66.9%
11 | COc1cc(-c2cc(Cn3cc4nc(-c5cccc(F)c5F)nc-4cn3)on2)ccc1OC(F)F [Compound 163, 5-[3-(4-Difluoromethoxy-3-methoxy-phenyl)-isoxazol-5-ylmethyl]-2-(2,3-difluoro-phenyl)-5H-imidazo[4,5-d]pyridazine] | 62%
12 | Fc1cccc(-c2nc3cnn(Cc4cc(-c5cc(C(F)(F)F)cc(C(F)(F)F)c5)no4)cc-3n2)c1F [Compound 164, 5-[3-(3,5-Bis-trifluoromethyl-phenyl)-isoxazol-5-ylmethyl]-2-(2,3-difluoro-phenyl)-5H-imidazo[4,5-d]pyridazine] | 90.1%
13 | Fc1cccc(-c2nc3cnn(Cc4cc(-c5ccc(OC(F)(F)F)c(Cl)c5)no4)cc-3n2)c1F [Compound 165, 5-[3-(3-Chloro-4-trifluoromethoxy-phenyl)-isoxazol-5-ylmethyl]-2-(2,3-difluoro-phenyl)-5H-imidazo[4,5-d]pyridazine] | 79.4%
14 | COc1ccc(-c2cc(Cn3cc4nc(-c5cccc(F)c5F)nc-4cn3)on2)c(O)c1 [Compound 166, 2-{5-[2-(2,3-Difluoro-phenyl)-imidazo[4,5-d]pyridazin-5-ylmethyl]-isoxazol-3-yl}-5-methoxy-phenol] | 70.7%
15 | Fc1cccc(-c2nc3cnn(Cc4cc(-c5ccc6c(c5)OC(F)(F)O6)no4)cc-3n2)c1F [Compound 167, 5-[3-(2,2-Difluoro-benzo[1,3]dioxol-5-yl)-isoxazol-5-ylmethyl]-2-(2,3-difluoro-phenyl)-5H-imidazo[4,5-d]pyridazine] | 93.1%
16 | Fc1cc(-c2cc(Cn3cc4nc(-c5cccc(F)c5F)nc-4cn3)on2)ccc1OC(F)(F)F [Compound 168, 2-(2,3-Difluoro-phenyl)-5-[3-(3-fluoro-4-trifluoromethoxy-phenyl)-isoxazol-5-ylmethyl]-5H-imidazo[4,5-d]pyridazine] | 99.2%
17 | Fc1cccc(-c2nc3cnn(Cc4cc(-c5ccc(OC(F)F)cc5OC(F)F)no4)cc-3n2)c1F [Compound 169, 5-[3-(2,4-Bis-difluoromethoxy-phenyl)-isoxazol-5-ylmethyl]-2-(2,3-difluoro-phenyl)-5H-imidazo[4,5-d]pyridazine] | 83.6%
18 | Fc1cccc(-c2nc3cnn(Cc4cc(-c5ccc(OC(F)(F)C(F)C(F)(F)F)cc5)no4)cc-3n2)c1F (centres unmarked) [Compound 170, 2-(2,3-Difluoro-phenyl)-5-{3-[4-(1,1,2,3,3,3-hexafluoro-propoxy)-phenyl]-isoxazol-5-ylmethyl}-5H-imidazo[4,5-d]pyridazine] | 97.9%
19 | COc1ccc(-c2cc(Cn3cc4nc(-c5cccc(F)c5F)nc-4cn3)on2)c(C)c1 [Compound 171, 2-(2,3-Difluoro-phenyl)-5-[3-(4-methoxy-2-methyl-phenyl)-isoxazol-5-ylmethyl]-5H-imidazo[4,5-d]pyridazine] | 91.5%
20 | Fc1cccc(-c2nc3cnn(Cc4cc(-c5ccc(OCc6ccccn6)cc5)no4)cc-3n2)c1F [Compound 172, 2-(2,3-Difluoro-phenyl)-5-{3-[4-(pyridin-2-ylmethoxy)-phenyl]-isoxazol-5-ylmethyl}-5H-imidazo[4,5-d]pyridazine] | 95.4%
21 | Fc1cccc(-c2nc3cnn(Cc4cc(-c5ccc(OCc6ccccc6)cc5)no4)cc-3n2)c1F [Compound 173, 5-[3-(4-Benzyloxy-phenyl)-isoxazol-5-ylmethyl]-2-(2,3-difluoro-phenyl)-5H-imidazo[4,5-d]pyridazine] | 98.7%
22 | COc1ccc(-c2cc(Cn3cc4nc(-c5cccc(F)c5F)nc-4cn3)on2)c(C(F)(F)F)c1 [Compound 174, 2-(2,3-Difluoro-phenyl)-5-[3-(4-methoxy-2-trifluoromethyl-phenyl)-isoxazol-5-ylmethyl]-5H-imidazo[4,5-d]pyridazine] | 99.7%
23 | Fc1cccc(-c2nc3cnn(Cc4cc(-c5ccc(OC(F)(F)C(F)F)cc5)no4)cc-3n2)c1F [Compound 175, 2-(2,3-Difluoro-phenyl)-5-{3-[4-(1,1,2,2-tetrafluoro-ethoxy)-phenyl]-isoxazol-5-ylmethyl}-5H-imidazo[4,5-d]pyridazine] | 99.8%
24 | Fc1cccc(-c2nc3cnn(Cc4cc(-c5ccc(OC(F)F)cc5)no4)cc-3n2)c1F [Compound 176, 5-[3-(4-Difluoromethoxy-phenyl)-isoxazol-5-ylmethyl]-2-(2,3-difluoro-phenyl)-5H-imidazo[4,5-d]pyridazine] | 99.8%
25 | Cc1cc(OC(F)(F)F)ccc1-c1cc(Cn2cc3nc(-c4cccc(F)c4F)nc-3cn2)on1 [Compound 177, 2-(2,3-Difluoro-phenyl)-5-[3-(2-methyl-4-trifluoromethoxy-phenyl)-isoxazol-5-ylmethyl]-5H-imidazo[4,5-d]pyridazine] | 99.6%
26 | Fc1cccc(-c2nc3cnn(Cc4cc(-c5ccc(COc6cccnc6)cc5)no4)cc-3n2)c1F [Compound 178, 2-(2,3-Difluoro-phenyl)-5-{3-[4-(pyridin-3-yloxymethyl)-phenyl]-isoxazol-5-ylmethyl}-5H-imidazo[4,5-d]pyridazine] | 98.7%
27 | Fc1cccc(-c2nc3cnn(Cc4cc(-c5ccc(OCc6cccnc6)cc5)no4)cc-3n2)c1F [Compound 179, 2-(2,3-Difluoro-phenyl)-5-{3-[4-(pyridin-3-ylmethoxy)-phenyl]-isoxazol-5-ylmethyl}-5H-imidazo[4,5-d]pyridazine] | 99.9%
28 | Cc1csc(-c2cc(Cn3cc4nc(-c5cccc(F)c5F)nc-4cn3)on2)n1 [Compound 180, 2-(2,3-Difluoro-phenyl)-5-[3-(4-methyl-thiazol-2-yl)-isoxazol-5-ylmethyl]-5H-imidazo[4,5-d]pyridazine] | 83.3%
29 | Cc1nc(-c2cc(Cn3cc4nc(-c5cccc(F)c5F)nc-4cn3)on2)c(C)o1 [Compound 185, 2-(2,3-Difluoro-phenyl)-5-[3-(2,5-dimethyl-oxazol-4-yl)-isoxazol-5-ylmethyl]-5H-imidazo[4,5-d]pyridazine] | 47.8%
